Values after ≈ are worked out from the molar mass of the structure shown.
What was measured:
[1] = system: Staphylococcus aureus strain USA300-LAC; test: Non-lethal bacteremia model, bacteria loads in organs; type: in vivo, Balb/c mice; details: 10 mg/kg/day intraperitoneal, 4 days
Method: FIG. 9 are the bar graphs showing compound 8 and compound 35 reduce bacteria loads in different organs of the mice infected by Staphylococcus aureus. Grubb's test was performed to test for outliers. Statistical analysis was performed with two-sided paired t test. (*p<0.05).
Staphylococcus aureus strain USA300-LAC were cultured to the early exponential phase of growth, washed twice with sterile phosphate-buffered saline solution (PBS), and resuspended in PBS at 5×10^6 CFU/200 μL for non-lethal bacteremia model. The female Balb/c mice, 6-8 weeks, were infected intravenously (i.v.) through the tail vein with Staphylococcus aureus and randomized into three groups (N=14 for vehicle; N=12 for compound 8 and compound 35 respectively). One hour after infection, mice received intraperitoneal injections of compound 8 or compound 35 (10 mg/kg/day) or an injection of buffer (PBS with 2.5% DMSO and 2% Tween-80) as the control. The compound and injection buffer treatments were performed twice per day at 12-h intervals. The challenged mice were monitored for 4 days, at which point all the remaining mice were sacrificed. The CFU of S. aureus were determined in heart, liver, kidney and lung by plating in series dilution. Grubb's test was performed to test for outliers. Statistical analysis was performed with two-sided paired t test. (*p<0.05).

[2] = system: multidrug resistant Staphylococcus aureus Mu3; test: MIC by CLSI broth micro-dilution, MRSA Mu3; type: cell-based; details: MRSA, CLSI broth micro-dilution, CAMH, read-out: Minimum inhibitory concentration (μM) in MRSA Mu3
Method: Aminoxy acids were synthesized by the standard peptide coupling procedures. Minimum inhibitory concentration was determined using CLSI broth micro-dilution method in 96-wells microtitre plates. Minimum inhibitory concentration is defined as the lowest concentration of the compound that inhibits visible growth of the bacteria. All experiments were performed three times. 24 compounds including aminoxy acid monomers and dipeptides have been identified to show toxicity against multidrug resistant Staphylococcus aureus Mu3 and summarized in Table 1. The minimum inhibitory concentration of compound 8 and compound 35 on other gram-positive bacteria was also evaluated and summarized in Table 2. […] As shown in FIGS. 3A-3B there are no observable hemolysis for compound 8 and compound 35 towards human red blood cell.
Bacteria were streaked from the glycerol stock into BHI agar and were incubated overnight. Single colony was picked for the overnight culture in cation-adjusted Mueller Hinton broth (CAMH), LB or BHI. The overnight culture was sub-cultured and regrew to exponential phase for the experiment.
MIC was determined by CLSI broth micro-dilution method in 96-wells microtitre plates. For compounds dissolved in water, 100 μL of 2× testing concentration was added to the first well of each column, followed by two-fold serial dilution for successive wells with 50 μL medium. For chemical compounds dissolved in DMSO, the compounds were two-fold serial diluted by DMSO in a DMSO-compatible 96-well plate. 1 μL of compound in DMSO was transferred into 96-wells microtitre plate containing 50 μL medium to give 2× testing concentration. An overnight culture of bacteria was grown into exponential phase. The bacteria culture was diluted to 1×10^6 CFU/mL and 50 μL of diluted culture were added into each well. The test plates were kept in a 37° C. incubator overnight. Optical density was recorded by DTX 880 multimode detector (Beckman Coulter, California, US). MIC is defined as the lowest concentration of the compound that inhibits visible growth of bacteria. Biological replicates were performed. CAMH was used for bacteria culture and MIC test except S. pneumoniae, L. monocytogenes, E. faecalis and M. smegmatis for which BHI was used as culture medium

SMILES	bacteria load in heart [1]	bacteria load in liver [1]	bacteria load in lung [1]	MIC [2] [µM]
CC(C)C[C@H](ONC(=O)[C@@H](COCc1ccccc1)ONC(=O)c1cc(C(F)(F)F)cc(C(F)(F)F)c1)C(=O)NCc1ccccc1 [Compound 30]	can reduce the bacteria load	can reduce the bacteria load	can reduce the bacteria load	> 12.5
Cc1ccc(S(=O)(=O)NO[C@H](COCc2ccccc2)C(=O)NO[C@@H](CC(C)C)C(=O)Nc2ccc3c(c2)OC(F)(F)O3)cc1 [Compound 53]				> 12.5
CC(C)C[C@H](ONC(=O)[C@@H](COCc1ccccc1)ONS(=O)(=O)c1cc(C(F)(F)F)cc(C(F)(F)F)c1)C(=O)Nc1ccc2c(c1)OC(F)(F)O2 [Compound 55]				> 12.5
CC(C)C[C@H](ONC(=O)[C@@H](COCc1ccccc1)ONC(=O)c1cc(C(F)(F)F)cc(C(F)(F)F)c1)C(=O)NOCc1ccccc1 [Compound 40]				> 12.5
O=C(NO[C@H](COCc1ccccc1)C(=O)NO[C@H](Cc1c[nH]c2ccccc12)C(=O)Nc1ccccc1)c1cc(C(F)(F)F)cc(C(F)(F)F)c1 [Compound 10]				6.25 (≈ 4.55 µg/mL)

Reference: patent publication US20240315992A1, “AMINOXY ACID-BASED ANTIBACTERIAL COMPOUNDS AND METHODS THEREOF” (The University of Hong Kong, priority 2023, published 2024)
